Source: US20250195521A1 (Revolution Medicines, Inc., priority 2020, published 2025)
Like-named read-outs stand apart in the source and are kept apart here.

Tests used:
AsPC-1 (K-Ras G12D) [1] = test: CellTiter-Glo cell viability assay, AsPC-1; assay type: cell-based, human; conditions: Homo sapiens, ASPC1, 120 h, read-out: AsPC-1 Cell Viability IC50
Experimental: Note—The following protocol describes a procedure for monitoring cell viability of K-Ras mutant cancer cell lines in response to a compound of the invention. Other RAS isoforms may be employed, though the number of cells to be seeded will vary based on cell line used.
Test compounds (132.5 nL) were directly dispensed into the assay plates containing cells. […] On day 5, assay plates and their contents were equilibrated to room temperature for approximately 30 minutes. […] Luminescence was measured using the PerkinElmer Enspire. Data were normalized by the following: (Sample signal/Avg. DMSO)*100. The data were fit using a four-parameter logistic fit.

[2] = tested on: NCI-H358 cells (K-Ras G12C); test: CellTiter-Glo cell viability, NCI-H358; assay type: cell-based, human; conditions: Homo sapiens, NCI-H358, 120 h, K-Ras G12C, 5-day treatment; read-out: H358 Cell Viability IC50
Procedure, shortened: (§1)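 Viability read by luminescence on day 5 after direct compound addition to cells, following ~30 min room-temperature equilibration. Values expressed as percent of mean DMSO signal, curves fitted with a four-parameter logistic model.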

[3] = tested on: Capan-1 cells (K-Ras G12V); test: CellTiter-Glo cell viability, Capan-1; assay type: cell-based, human; conditions: Homo sapiens, CAPAN-1, 120 h, K-Ras G12V, 5-day treatment; read-out: Capan-1 Cell Viability IC50
Procedure, shortened: as §1

KRAS G12C = KRAS G12C (Homo sapiens (Human), UniProt P01116+P62937, G12C); test: Ras-Raf disruption/FRET/MOA assay (BRAF RBD, Cyclophilin A); assay type: biochemical; conditions: read-out: KRAS G12C FRET IC50
Chain of KRAS G12C (P01116-2 other isoform, or with tags, fused parts or gaps G12C): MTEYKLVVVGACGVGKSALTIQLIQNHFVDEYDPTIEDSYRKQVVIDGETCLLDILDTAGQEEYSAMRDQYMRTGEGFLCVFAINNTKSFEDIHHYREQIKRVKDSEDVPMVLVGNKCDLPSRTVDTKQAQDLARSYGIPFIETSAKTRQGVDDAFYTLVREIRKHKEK
Chain of KRAS G12C (P62937 whole entry): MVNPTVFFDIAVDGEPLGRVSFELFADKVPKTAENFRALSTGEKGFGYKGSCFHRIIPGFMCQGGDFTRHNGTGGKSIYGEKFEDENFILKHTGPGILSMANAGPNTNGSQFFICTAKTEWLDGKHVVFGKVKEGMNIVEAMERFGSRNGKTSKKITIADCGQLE
Procedure, shortened: (§2)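 His6-K-Ras-GMPPNP (12.5 nM), GST-BRAF RBD (50 nM) and tagless Cyclophilin A (25 μM) were combined in 25 mM HEPES pH 7.3 with 100 mM NaCl, 5 mM MgCl2, 0.1% BSA and 0.002% Tween20, with compound as a 10-point 3-fold series from 30 μM final, then incubated 3 h at 25° C.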

KRAS G12D = KRAS G12D (Homo sapiens (Human), UniProt P01116+P62937, G12D); test: as above; assay type: biochemical; conditions: read-out: KRAS G12D FRET IC50
Chain of KRAS G12D (P01116 other isoform, or with tags, fused parts or gaps G12D): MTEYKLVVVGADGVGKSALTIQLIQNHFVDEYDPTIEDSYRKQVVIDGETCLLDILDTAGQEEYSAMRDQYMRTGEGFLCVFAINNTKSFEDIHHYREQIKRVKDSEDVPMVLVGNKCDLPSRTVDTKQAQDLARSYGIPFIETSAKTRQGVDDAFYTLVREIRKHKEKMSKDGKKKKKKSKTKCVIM
Chain of KRAS G12D (P62937 whole entry): as the sequence (P62937 whole entry) above
Procedure, shortened: as §2

KRAS G12S = KRAS G12S (Homo sapiens (Human), UniProt P01116+P62937, G12S); test: as above; assay type: biochemical; conditions: read-out: KRAS G12S FRET IC50
Chain of KRAS G12S (P01116 other isoform, or with tags, fused parts or gaps G12S): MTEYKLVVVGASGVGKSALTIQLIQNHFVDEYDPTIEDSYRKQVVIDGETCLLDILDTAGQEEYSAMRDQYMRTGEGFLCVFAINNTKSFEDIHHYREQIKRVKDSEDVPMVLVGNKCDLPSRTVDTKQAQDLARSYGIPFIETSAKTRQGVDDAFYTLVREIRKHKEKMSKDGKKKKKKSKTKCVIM
Chain of KRAS G12S (P62937 whole entry): as the sequence (P62937 whole entry) above
Procedure, shortened: as §2

KRAS G12V = KRAS G12V (Homo sapiens (Human), UniProt P01116+P62937, G12V); test: as above; assay type: biochemical; conditions: read-out: KRAS G12V FRET IC50
Chain of KRAS G12V (P01116 other isoform, or with tags, fused parts or gaps G12V): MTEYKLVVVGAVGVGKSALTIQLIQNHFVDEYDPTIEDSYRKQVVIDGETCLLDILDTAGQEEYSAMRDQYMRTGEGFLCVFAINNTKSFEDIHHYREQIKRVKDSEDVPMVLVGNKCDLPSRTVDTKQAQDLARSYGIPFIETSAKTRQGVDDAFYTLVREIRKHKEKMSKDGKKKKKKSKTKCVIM
Chain of KRAS G12V (P62937 whole entry): as the sequence (P62937 whole entry) above
Procedure, shortened: as §2

KRAS G13C = KRAS G13C (Homo sapiens (Human), UniProt P01116+P62937, G13C); test: as above; assay type: biochemical; conditions: read-out: KRAS G13C FRET IC50
Chain of KRAS G13C (P01116 other isoform, or with tags, fused parts or gaps G13C): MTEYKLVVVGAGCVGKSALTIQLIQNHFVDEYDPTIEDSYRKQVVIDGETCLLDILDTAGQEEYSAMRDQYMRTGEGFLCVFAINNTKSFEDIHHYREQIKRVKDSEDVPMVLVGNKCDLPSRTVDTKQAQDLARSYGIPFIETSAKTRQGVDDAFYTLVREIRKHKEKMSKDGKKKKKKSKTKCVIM
Chain of KRAS G13C (P62937 whole entry): as the sequence (P62937 whole entry) above
Procedure, shortened: as §2

KRAS G13D = KRAS G13D (Homo sapiens (Human), UniProt P01116+P62937, G13D); test: as above; assay type: biochemical; conditions: read-out: KRAS G13D FRET data IC50
Chain of KRAS G13D (P01116 other isoform, or with tags, fused parts or gaps G13D): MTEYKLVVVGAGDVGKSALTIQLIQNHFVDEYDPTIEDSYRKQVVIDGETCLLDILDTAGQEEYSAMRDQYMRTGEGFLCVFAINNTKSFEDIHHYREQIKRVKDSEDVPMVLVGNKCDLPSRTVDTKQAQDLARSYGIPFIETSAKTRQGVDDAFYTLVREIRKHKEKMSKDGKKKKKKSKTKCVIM
Chain of KRAS G13D (P62937 whole entry): as the sequence (P62937 whole entry) above
Procedure, shortened: as §2

KRAS Q61H = KRAS Q61H (Homo sapiens (Human), UniProt P01116+P62937, Q61H); test: as above; assay type: biochemical
Chain of KRAS Q61H (P01116 other isoform, or with tags, fused parts or gaps Q61H): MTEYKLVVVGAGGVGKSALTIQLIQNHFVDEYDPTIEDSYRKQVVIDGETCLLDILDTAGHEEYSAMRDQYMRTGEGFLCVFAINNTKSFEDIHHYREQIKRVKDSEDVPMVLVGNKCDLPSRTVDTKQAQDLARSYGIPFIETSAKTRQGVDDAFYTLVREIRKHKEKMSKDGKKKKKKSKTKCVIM
Chain of KRAS Q61H (P62937 whole entry): as the sequence (P62937 whole entry) above
Procedure, shortened: as §2

KRAS WT = KRAS WT (Homo sapiens (Human), UniProt P01116+P62937); test: as above; assay type: biochemical; conditions: read-out: KRAS WT FRET data IC50
Chain of KRAS WT (P01116 other isoform, or with tags, fused parts or gaps): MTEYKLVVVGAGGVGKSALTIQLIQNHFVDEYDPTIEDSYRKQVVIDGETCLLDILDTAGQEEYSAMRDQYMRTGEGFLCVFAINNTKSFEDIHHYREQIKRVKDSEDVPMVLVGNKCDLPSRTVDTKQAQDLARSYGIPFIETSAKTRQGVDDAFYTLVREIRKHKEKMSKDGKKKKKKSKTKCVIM
Chain of KRAS WT (P62937 whole entry): as the sequence (P62937 whole entry) above
Procedure, shortened: as §2

NRAS G12C = NRAS G12C (Homo sapiens (Human), UniProt P01111+P62937, G12C); test: as above; assay type: biochemical; conditions: read-out: NRAS G12C FRET data IC50
Chain of NRAS G12C (P01111 whole entry G12C): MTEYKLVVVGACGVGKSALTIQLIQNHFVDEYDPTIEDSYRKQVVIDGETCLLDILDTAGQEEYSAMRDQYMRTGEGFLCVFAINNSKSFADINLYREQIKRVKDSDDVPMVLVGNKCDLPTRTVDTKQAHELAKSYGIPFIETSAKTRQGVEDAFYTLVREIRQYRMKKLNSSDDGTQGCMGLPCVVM
Chain of NRAS G12C (P62937 whole entry): as the sequence (P62937 whole entry) above
Procedure, shortened: (§3)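 Measured: compound-facilitated Cyclophilin A:Ras complex blocking RAF RBD binding. Conditions: 12.5 nM Ras-GMPPNP, 50 nM BRAF RBD, 25 μM CypA, 3 h plus 1.5 h detection. Output: IC50 from TR-FRET ratio.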

NRAS Q61K = NRAS Q61K (Homo sapiens (Human), UniProt P01111+P62937, Q61K); test: as above; assay type: biochemical
Chain of NRAS Q61K (P01111 whole entry Q61K): as the sequence (P01111 whole entry G12C) above, with C12G, Q61K counted along it
Chain of NRAS Q61K (P62937 whole entry): as the sequence (P62937 whole entry) above
Procedure, shortened: as §3

NRAS Q61R = NRAS Q61R (Homo sapiens (Human), UniProt P01111+P62937, Q61R); test: as above; assay type: biochemical
Chain of NRAS Q61R (P01111 whole entry Q61R): as the sequence (P01111 whole entry G12C) above, with C12G, Q61R counted along it
Chain of NRAS Q61R (P62937 whole entry): as the sequence (P62937 whole entry) above
Procedure, shortened: as §3

NRAS WT = NRAS WT (Homo sapiens (Human), UniProt P01111+P62937); test: as above; assay type: biochemical
Chain of NRAS WT (P01111 whole entry): as the sequence (P01111 whole entry G12C) above, with C12G counted along it
Chain of NRAS WT (P62937 whole entry): as the sequence (P62937 whole entry) above
Procedure, shortened: as §3

NCI-H358 (K-Ras G12C) = test: CellTiter-Glo cell viability assay, NCI-H358; assay type: cell-based, human; conditions: Homo sapiens, NCI-H358, 120 h, 5-day treatment; read-out: H358 Cell Viability assay data (K-Ras G12C, IC50)
Procedure, shortened: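 Viability read-out was luminescent (CellTiter-Glo) on day 5 of compound exposure in K-Ras G12C NCI-H358 cells. Values were expressed as percent of mean DMSO signal and fitted with a four-parameter logistic curve.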

[4] = biological target: K-Ras G12C(GMP-PNP) binding to BRAF RBD (Homo sapiens (Human), UniProt P01116+P62937, G12C); test: Disruption of BRAF RBD interaction with K-Ras (FRET / MOA assay), K-Ras G12C; assay type: biochemical; conditions: read-out: KRAS G12C FRET IC50
Chain of K-Ras G12C(GMP-PNP) binding to BRAF RBD (P01116 other isoform, or with tags, fused parts or gaps G12C): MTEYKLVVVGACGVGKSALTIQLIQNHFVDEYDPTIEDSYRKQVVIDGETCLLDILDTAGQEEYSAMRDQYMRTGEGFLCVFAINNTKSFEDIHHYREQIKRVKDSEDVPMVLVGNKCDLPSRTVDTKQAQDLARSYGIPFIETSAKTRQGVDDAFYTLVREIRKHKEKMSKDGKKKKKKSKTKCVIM
Chain of K-Ras G12C(GMP-PNP) binding to BRAF RBD (P62937 whole entry): as the sequence (P62937 whole entry) above
Procedure, shortened: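 First, test compounds in a 10-point 3-fold series (30 μM final top) were incubated for 3 hours at 25° C with nucleotide-loaded Ras, cyclophilin A and a BRAF RBD construct. Next, Eu anti-His and allophycocyanin anti-GST detection reagents were added for 1.5 hours. Finally, IC50s were derived from loss of TR-FRET signal against DMSO.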

AsPC-1 (K-Ras G12D) [5] = test: Potency assay: pERK; assay type: cell-based, human; conditions: Homo sapiens, ASPC1, read-out: pERK EC50
Experimental: The purpose of this assay is to measure the ability of test compounds to inhibit K-Ras in cells. […] This procedure measures a decrease in cellular pERK in response to test compounds. The procedure described below in NCI-H358 cells is applicable to K-Ras G12C.
NCI-H358 cells were grown and maintained using media and procedures recommended by the ATCC. On the day prior to compound addition, cells were plated in 384-well cell culture plates (40 μl/well) and grown overnight in a 37° C., 5% CO2 incubator. Test compounds were prepared in 10, 3-fold dilutions in DMSO, with a high concentration of 10 mM. On the day of assay, 40 nL of test compound was added to each well of cell culture plate using an Echo550 liquid handler (LabCyte®). Concentrations of test compound were tested in duplicate. After compound addition, cells were incubated 4 hours at 37° C., 5% CO2. Following incubation, culture medium was removed and cells were washed once with phosphate buffered saline.
In some experiments, cellular pERK level was determined using the AlphaLISA SureFire Ultra p-ERK1/2 Assay Kit (PerkinElmer). Cells were lysed in 25 μL lysis buffer, with shaking at 600 RPM at room temperature. Lysate (10 μL) was transferred to a 384-well Opti-plate (PerkinElmer) and 5 μL acceptor mix was added. After a 2-hour incubation in the dark, 5 μL donor mix was added, plate was sealed, and incubated 2 hours at room temperature. Signal was read on an Envision plate reader (PerkinElmer) using standard AlphaLISA settings. Analysis of raw data was carried out in Excel (Microsoft) and Prism (GraphPad). Signal was plotted vs. the decadal logarithm of compound concentration, and IC50 was determined by fitting a 4-parameter sigmoidal concentration response model.
In other experiments, cellular pERK was determined by In-Cell Western. Following compound treatment, cells were washed twice with 200 μL tris buffered saline (TBS) and fixed for 15 minutes with 150 μL 4% paraformaldehyde in TBS. Fixed cells were washed 4 times for 5 minutes with TBS containing 0.1% Triton X-100 (TBST) and then blocked with 100 μL Odyssey blocking buffer (LI-COR) for 60 minutes at room temperature. Primary antibody (PERK, CST-4370, Cell Signaling Technology) was diluted 1:200 in blocking buffer, and 50 μL was added to each well and incubated overnight at 4° C. Cells were washed 4 times for 5 minutes with TBST. Secondary antibody (IR-800CW rabbit, LI-COR, diluted 1:800) and DNA stain DRAQ5 (LI-COR, diluted 1:2000) were added and incubated 1-2 hours at room temperature. Cells were washed 4 times for 5 minutes with TBST. Plates were scanned on a Li—COR Odyssey CLx Imager. Analysis of raw data was carried out in Excel (Microsoft) and Prism (GraphPad). Signal was plotted vs. the decadal logarithm of compound concentration, and IC50 was determined by fitting a 4-parameter sigmoidal concentration response model.

IC50 [2]	IC50 (KRAS G12C)	IC50 (KRAS G12D)	IC50 (KRAS G12S)	IC50 (KRAS G12V)	IC50 (KRAS G13C)	IC50 (KRAS G13D)	IC50 (KRAS Q61H)	IC50 (KRAS WT)	IC50 (NRAS G12C)	IC50 (NRAS Q61K)	IC50 (NRAS Q61R)	IC50 (NRAS WT)	IC50 (NCI-H358 (K-Ras G12C))	IC50 [4]	SMILES	IC50 [3]	EC50 (AsPC-1 (K-Ras G12D) [5])	IC50 (AsPC-1 (K-Ras G12D) [1])	other results
															CCn1c(-c2cccnc2[C@H](C)OC)c2c3cc(ccc31)-c1cc(O)cc(c1)C[C@H](NC(=O)[C@H](C(C)C)N(C)C(=O)N1CCN(C(=O)[C@@H]3CN3)C(=O)C1)C(=O)N1CCC[C@H](N1)C(=O)OCC(C)(C)C2 (atropisomer, axis not shown) [Example 194]				IC50 (AsPC-1 (K-Ras G12D) [1]; K-Ras G12D, 5-day treatment): > 10000 nM
10 to 100 nM	100 to 1000 nM	100 to 1000 nM	100 to 1000 nM	100 to 1000 nM	100 to 1000 nM	100 to 1000 nM	100 to 1000 nM	100 to 1000 nM	100 to 1000 nM	100 to 1000 nM	100 to 1000 nM	100 to 1000 nM	10 to 100 nM	10 to 100 nM	CCn1c(-c2cccnc2[C@H](C)OC)c2c3cc(ccc31)-c1csc(n1)C[C@H](NC(=O)[C@H](C(C)C)N(C)C(=O)N1C[C@H]3CCN(C)[C@H]3C1)C(=O)N1CCC[C@H](N1)C(=O)OCC(C)(C)C2 [Compound A568]	100 to 1000 nM			
10 to 100 nM	100 to 1000 nM	100 to 1000 nM	100 to 1000 nM	1000 to 10000 nM	100 to 1000 nM	100 to 1000 nM	100 to 1000 nM	100 to 1000 nM	100 to 1000 nM	100 to 1000 nM	1000 to 10000 nM	100 to 1000 nM	10 to 100 nM	100 to 1000 nM	CCn1c(-c2cccnc2[C@H](C)OC)c2c3cc(ccc31)-c1csc(n1)C[C@H](NC(=O)[C@H](C(C)C)N(C)C(=O)N(C)[C@H]1CCCN(C)C1)C(=O)N1CCC[C@H](N1)C(=O)OCC(C)(C)C2 [Compound A588]	100 to 1000 nM			
															CCn1c(-c2cccnc2[C@H](C)OC)c2c3cc(ccc31)-c1cc(O)cc(c1)C[C@H](NC(=O)[C@H](C(C)C)N(C)C(=O)[C@@H](C)N(C)C(=O)[C@H]1CN1)C(=O)N1CCC[C@H](N1)C(=O)OCC(C)(C)C2 [Example 114]		< 5000 nM	1000 to 10000 nM	
															CCn1c(-c2cccnc2[C@H](C)OC)c2c3cc(ccc31)-c1cc(O)cc(c1)C[C@H](NC(=O)[C@H](C(C)C)N(C)C(=O)CN(C)C(=O)[C@H]1N[C@H]1C1CC1)C(=O)N1CCC[C@H](N1)C(=O)OCC(C)(C)C2 [Example 134]		< 5000 nM	1000 to 10000 nM	
															CCn1c(-c2cccnc2[C@H](C)OC)c2c3cc(ccc31)-c1cc(O)cc(c1)C[C@H](NC(=O)[C@H](C(C)C)N(C)C(=O)CNC(=O)[C@H]1CN1)C(=O)N1CCC[C@H](N1)C(=O)OCC(C)(C)C2 [Example 140]		< 5000 nM	1000 to 10000 nM	
